Experimental data reported in publication PMC12090182, “Repurposing of the RIPK1-Selective Benzo[1,4]oxazepin-4-one Scaffold for the Development of a Type III LIMK1/2 Inhibitor” (ACS Chemical Biology, 2025).
Read-outs that look alike come from different tables or passages of the source.

Tests used:
[1] = Pharmacokinetic screening in mice (IV and PO, cassette dosing); assay type: in vivo, mouse; conditions: plasma
Protocol: Test compounds were administered intravenously (0.1 mg mL^–1/kg) or orally (1 mg/5 mL/kg) by cassette dosing to nonfasted mice. After administration, blood samples were collected and centrifuged to obtain the plasma fraction. The plasma samples were deproteinized followed by centrifugation. The compound concentrations in the supernatant were analyzed by LC/MS/MS.

ACVR2A = ACVR2A (Homo sapiens, UniProt P27037); assay: scanMAX KINOMEscan (Eurofins); assay type: binding; conditions: read-out: Percent Control
Sequence of ACVR2A (P27037 20-513): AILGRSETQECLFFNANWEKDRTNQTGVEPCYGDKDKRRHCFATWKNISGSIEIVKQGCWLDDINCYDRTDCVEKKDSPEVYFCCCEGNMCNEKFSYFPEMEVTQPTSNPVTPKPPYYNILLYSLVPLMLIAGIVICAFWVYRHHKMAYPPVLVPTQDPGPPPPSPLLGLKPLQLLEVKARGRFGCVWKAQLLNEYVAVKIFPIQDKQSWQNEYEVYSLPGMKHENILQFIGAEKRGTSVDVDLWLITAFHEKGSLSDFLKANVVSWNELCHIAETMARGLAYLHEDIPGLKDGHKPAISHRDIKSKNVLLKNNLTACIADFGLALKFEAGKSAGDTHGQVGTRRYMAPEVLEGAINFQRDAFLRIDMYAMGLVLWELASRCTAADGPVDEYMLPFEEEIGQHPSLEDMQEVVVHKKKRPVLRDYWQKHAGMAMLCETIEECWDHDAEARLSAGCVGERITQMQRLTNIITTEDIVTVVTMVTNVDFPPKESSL
Excerpt: (§1) Supplement cb5c00097_si_002.xlsx, sheet "Table S6 (Eurofins Selectivity)" | column: Percent Control

ASK2 = ASK2 (Homo sapiens, UniProt O95382); assay: scanMAX KINOMEscan (Eurofins); assay type: binding; conditions: 1000 nM, read-out: Percent Control
Excerpt: as §1

BMPR2 = BMPR2 (Homo sapiens, UniProt Q13873); assay: scanMAX KINOMEscan (Eurofins); assay type: binding; conditions: read-out: Percent Control
Sequence of BMPR2 (Q13873 27-1038): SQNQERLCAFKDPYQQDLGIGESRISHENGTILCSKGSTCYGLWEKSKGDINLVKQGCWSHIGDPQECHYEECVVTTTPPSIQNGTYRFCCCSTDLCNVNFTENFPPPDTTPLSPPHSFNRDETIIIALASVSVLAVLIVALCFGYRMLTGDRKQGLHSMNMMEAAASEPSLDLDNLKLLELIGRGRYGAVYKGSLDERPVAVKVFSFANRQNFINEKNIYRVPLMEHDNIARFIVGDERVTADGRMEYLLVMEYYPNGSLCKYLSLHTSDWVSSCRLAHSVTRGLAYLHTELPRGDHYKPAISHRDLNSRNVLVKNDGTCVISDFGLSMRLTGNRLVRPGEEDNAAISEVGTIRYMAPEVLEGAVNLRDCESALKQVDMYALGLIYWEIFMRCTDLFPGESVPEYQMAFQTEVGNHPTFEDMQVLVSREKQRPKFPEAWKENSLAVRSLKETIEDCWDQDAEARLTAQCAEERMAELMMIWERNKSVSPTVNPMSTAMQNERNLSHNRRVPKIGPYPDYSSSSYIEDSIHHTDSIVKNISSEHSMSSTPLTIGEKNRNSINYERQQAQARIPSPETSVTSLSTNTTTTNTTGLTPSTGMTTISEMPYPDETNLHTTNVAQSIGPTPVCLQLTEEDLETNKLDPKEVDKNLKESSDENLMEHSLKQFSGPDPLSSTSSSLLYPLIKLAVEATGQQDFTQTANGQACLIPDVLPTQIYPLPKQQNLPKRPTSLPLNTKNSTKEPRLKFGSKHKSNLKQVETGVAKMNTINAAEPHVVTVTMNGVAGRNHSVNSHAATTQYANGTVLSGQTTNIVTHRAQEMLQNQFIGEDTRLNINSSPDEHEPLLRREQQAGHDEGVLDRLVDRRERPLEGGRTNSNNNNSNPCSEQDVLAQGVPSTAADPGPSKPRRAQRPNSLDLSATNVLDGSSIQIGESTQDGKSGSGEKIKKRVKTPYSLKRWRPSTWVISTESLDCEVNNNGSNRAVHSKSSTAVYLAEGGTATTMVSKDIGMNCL
Excerpt: as §1

BMX = BMX (Homo sapiens, UniProt P51813); assay: scanMAX KINOMEscan (Eurofins); assay type: binding; conditions: read-out: Percent Control
Sequence of BMX (P51813 whole entry): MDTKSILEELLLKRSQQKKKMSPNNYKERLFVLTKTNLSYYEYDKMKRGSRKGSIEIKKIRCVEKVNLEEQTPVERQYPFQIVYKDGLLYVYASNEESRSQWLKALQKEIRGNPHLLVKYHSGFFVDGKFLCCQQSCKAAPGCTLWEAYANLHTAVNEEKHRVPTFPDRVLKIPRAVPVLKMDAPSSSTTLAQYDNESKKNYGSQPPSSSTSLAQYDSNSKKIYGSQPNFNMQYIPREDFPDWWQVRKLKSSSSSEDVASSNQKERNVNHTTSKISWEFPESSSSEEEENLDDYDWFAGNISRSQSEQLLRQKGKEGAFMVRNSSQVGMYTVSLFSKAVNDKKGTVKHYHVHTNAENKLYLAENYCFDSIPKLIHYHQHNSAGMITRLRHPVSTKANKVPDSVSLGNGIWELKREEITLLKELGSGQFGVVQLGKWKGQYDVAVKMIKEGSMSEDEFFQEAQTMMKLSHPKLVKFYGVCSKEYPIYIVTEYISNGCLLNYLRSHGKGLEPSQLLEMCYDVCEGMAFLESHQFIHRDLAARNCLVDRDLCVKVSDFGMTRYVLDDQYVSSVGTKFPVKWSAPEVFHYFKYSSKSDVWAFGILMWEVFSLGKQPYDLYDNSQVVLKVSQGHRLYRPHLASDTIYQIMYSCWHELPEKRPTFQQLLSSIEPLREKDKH
Excerpt: as §1

BRSK2 = BRSK2 (Homo sapiens, UniProt Q8IWQ3); assay: scanMAX KINOMEscan (Eurofins); assay type: binding; conditions: read-out: Percent Control
Sequence of BRSK2 (Q8IWQ3 whole entry): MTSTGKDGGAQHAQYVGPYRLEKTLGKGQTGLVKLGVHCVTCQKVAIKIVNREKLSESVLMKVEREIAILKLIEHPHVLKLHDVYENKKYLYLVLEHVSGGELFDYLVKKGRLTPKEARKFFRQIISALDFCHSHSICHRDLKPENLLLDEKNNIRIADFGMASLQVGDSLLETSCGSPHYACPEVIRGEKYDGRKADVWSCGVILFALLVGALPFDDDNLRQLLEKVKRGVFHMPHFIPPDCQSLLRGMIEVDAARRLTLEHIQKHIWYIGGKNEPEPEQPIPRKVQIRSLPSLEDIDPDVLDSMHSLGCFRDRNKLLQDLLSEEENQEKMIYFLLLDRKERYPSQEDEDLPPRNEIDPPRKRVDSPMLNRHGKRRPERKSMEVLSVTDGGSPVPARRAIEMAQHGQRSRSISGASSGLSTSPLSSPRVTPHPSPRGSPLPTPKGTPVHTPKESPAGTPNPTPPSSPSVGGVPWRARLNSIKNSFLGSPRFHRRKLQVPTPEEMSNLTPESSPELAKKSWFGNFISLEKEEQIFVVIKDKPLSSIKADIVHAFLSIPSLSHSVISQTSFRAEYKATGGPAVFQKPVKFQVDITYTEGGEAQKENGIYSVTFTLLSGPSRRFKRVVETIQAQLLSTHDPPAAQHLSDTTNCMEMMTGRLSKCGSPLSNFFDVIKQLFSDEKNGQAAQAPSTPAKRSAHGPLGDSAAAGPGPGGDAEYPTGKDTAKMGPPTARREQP
Excerpt: as §1

CAMK2G = CAMK2G (Homo sapiens, UniProt Q13555); assay: scanMAX KINOMEscan (Eurofins); assay type: binding; conditions: 1000 nM, read-out: Percent Control
Excerpt: as §1

CDK2 = CDK2 (Homo sapiens, UniProt P24941); assay: scanMAX KINOMEscan (Eurofins); assay type: binding; conditions: 1000 nM, read-out: Percent Control
Excerpt: as §1

CDK8 = CDK8 (Homo sapiens, UniProt P49336); assay: scanMAX KINOMEscan (Eurofins); assay type: binding; conditions: 1000 nM, read-out: Percent Control
Excerpt: as §1

CSNK1G2 = CSNK1G2 (Homo sapiens, UniProt P78368); assay: scanMAX KINOMEscan (Eurofins); assay type: binding; conditions: read-out: Percent Control
Sequence of CSNK1G2 (P78368 whole entry): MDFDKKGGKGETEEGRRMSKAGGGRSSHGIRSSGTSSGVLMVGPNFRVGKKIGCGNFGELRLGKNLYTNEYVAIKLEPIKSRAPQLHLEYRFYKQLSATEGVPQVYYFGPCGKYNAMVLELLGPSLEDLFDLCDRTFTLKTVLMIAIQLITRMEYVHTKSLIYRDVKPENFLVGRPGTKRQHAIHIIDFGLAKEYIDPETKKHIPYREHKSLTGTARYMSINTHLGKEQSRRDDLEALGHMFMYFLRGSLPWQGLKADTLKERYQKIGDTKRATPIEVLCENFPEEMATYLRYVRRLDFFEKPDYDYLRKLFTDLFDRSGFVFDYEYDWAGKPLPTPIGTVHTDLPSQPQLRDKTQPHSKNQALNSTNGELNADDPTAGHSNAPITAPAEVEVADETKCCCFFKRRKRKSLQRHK
Excerpt: as §1

DAPK3 = DAPK3 (Homo sapiens, UniProt O43293); assay: scanMAX KINOMEscan (Eurofins); assay type: binding; conditions: 1000 nM, read-out: Percent Control
Excerpt: as §1

DYRK1B = DYRK1B (Homo sapiens, UniProt Q9Y463); assay: scanMAX KINOMEscan (Eurofins); assay type: binding; conditions: read-out: Percent Control
Sequence of DYRK1B (Q9Y463 whole entry): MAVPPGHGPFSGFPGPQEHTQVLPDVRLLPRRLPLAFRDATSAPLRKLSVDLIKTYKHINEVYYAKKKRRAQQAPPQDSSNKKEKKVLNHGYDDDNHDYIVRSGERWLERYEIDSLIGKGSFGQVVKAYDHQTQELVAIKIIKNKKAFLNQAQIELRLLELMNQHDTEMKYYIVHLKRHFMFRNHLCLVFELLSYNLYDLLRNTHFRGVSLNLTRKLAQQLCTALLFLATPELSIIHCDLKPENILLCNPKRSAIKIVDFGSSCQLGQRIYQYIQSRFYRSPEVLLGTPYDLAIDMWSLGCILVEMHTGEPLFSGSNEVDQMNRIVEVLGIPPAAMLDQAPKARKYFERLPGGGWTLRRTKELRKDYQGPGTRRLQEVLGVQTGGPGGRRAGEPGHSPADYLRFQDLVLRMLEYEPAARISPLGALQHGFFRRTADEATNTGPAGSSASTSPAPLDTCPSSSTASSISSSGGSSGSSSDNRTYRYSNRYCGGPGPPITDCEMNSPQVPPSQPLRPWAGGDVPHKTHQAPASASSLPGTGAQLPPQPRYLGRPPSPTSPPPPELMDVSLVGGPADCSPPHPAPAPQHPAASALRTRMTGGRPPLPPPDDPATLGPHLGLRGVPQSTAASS
Excerpt: as §1

FGFR4 = FGFR4 (Homo sapiens, UniProt P22455); assay: scanMAX KINOMEscan (Eurofins); assay type: binding; conditions: 1000 nM, read-out: Percent Control
Excerpt: as §1

INSR = INSR (Homo sapiens, UniProt P06213); assay: scanMAX KINOMEscan (Eurofins); assay type: binding; conditions: 1000 nM, read-out: Percent Control
Excerpt: as §1

JNK3 = JNK3 (Homo sapiens, UniProt P53779); assay: scanMAX KINOMEscan (Eurofins); assay type: binding; conditions: 1000 nM, read-out: Percent Control
Excerpt: as §1

LATS1 = LATS1 (Homo sapiens, UniProt O95835); assay: scanMAX KINOMEscan (Eurofins); assay type: binding; conditions: 1000 nM, read-out: Percent Control
Excerpt: as §1

MARK1 = MARK1 (Homo sapiens, UniProt Q9P0L2); assay: scanMAX KINOMEscan (Eurofins); assay type: binding; conditions: compound concentration 100 nM; Entrez MARK1; read-out: Percent Control
Excerpt: as §1

MLCK = MLCK (Homo sapiens, UniProt Q32MK0); assay: scanMAX KINOMEscan (Eurofins); assay type: binding; conditions: 1000 nM, read-out: Percent Control
Excerpt: as §1

MYO3B = MYO3B (Homo sapiens, UniProt Q8WXR4); assay: scanMAX KINOMEscan (Eurofins); assay type: binding; conditions: 1000 nM, read-out: Percent Control
Excerpt: as §1

NEK9 = NEK9 (Homo sapiens, UniProt Q8TD19); assay: scanMAX KINOMEscan (Eurofins); assay type: binding; conditions: 1000 nM, read-out: Percent Control
Excerpt: as §1

PHKG2 = PHKG2 (Homo sapiens, UniProt P15735); assay: scanMAX KINOMEscan (Eurofins); assay type: binding; conditions: 1000 nM, read-out: Percent Control
Excerpt: as §1

PIK4CB = PIK4CB (Homo sapiens, UniProt Q9UBF8); assay: scanMAX KINOMEscan (Eurofins); assay type: binding; conditions: 1000 nM, read-out: Percent Control
Excerpt: as §1

RAF1 = RAF1 (Homo sapiens, UniProt P04049); assay: scanMAX KINOMEscan (Eurofins); assay type: binding; conditions: compound concentration 100 nM; Entrez RAF1; read-out: Percent Control
Excerpt: as §1

[2] = molecular target: RPS6KA4(Kin.Dom.1-N-terminal) (Homo sapiens, UniProt O75676); assay: scanMAX KINOMEscan (Eurofins); assay type: binding; conditions: compound concentration 100 nM; Entrez RPS6KA4; read-out: Percent Control
Excerpt: as §1

SRPK1 = SRPK1 (Homo sapiens, UniProt Q96SB4); assay: scanMAX KINOMEscan (Eurofins); assay type: binding; conditions: 1000 nM, read-out: Percent Control
Excerpt: as §1

STK16 = STK16 (Homo sapiens, UniProt O75716); assay: scanMAX KINOMEscan (Eurofins); assay type: binding; conditions: compound concentration 100 nM; Entrez STK16; read-out: Percent Control
Excerpt: as §1

TNK2 = TNK2 (Homo sapiens, UniProt Q07912); assay: scanMAX KINOMEscan (Eurofins); assay type: binding; conditions: read-out: Percent Control
Sequence of TNK2 (Q07912 whole entry): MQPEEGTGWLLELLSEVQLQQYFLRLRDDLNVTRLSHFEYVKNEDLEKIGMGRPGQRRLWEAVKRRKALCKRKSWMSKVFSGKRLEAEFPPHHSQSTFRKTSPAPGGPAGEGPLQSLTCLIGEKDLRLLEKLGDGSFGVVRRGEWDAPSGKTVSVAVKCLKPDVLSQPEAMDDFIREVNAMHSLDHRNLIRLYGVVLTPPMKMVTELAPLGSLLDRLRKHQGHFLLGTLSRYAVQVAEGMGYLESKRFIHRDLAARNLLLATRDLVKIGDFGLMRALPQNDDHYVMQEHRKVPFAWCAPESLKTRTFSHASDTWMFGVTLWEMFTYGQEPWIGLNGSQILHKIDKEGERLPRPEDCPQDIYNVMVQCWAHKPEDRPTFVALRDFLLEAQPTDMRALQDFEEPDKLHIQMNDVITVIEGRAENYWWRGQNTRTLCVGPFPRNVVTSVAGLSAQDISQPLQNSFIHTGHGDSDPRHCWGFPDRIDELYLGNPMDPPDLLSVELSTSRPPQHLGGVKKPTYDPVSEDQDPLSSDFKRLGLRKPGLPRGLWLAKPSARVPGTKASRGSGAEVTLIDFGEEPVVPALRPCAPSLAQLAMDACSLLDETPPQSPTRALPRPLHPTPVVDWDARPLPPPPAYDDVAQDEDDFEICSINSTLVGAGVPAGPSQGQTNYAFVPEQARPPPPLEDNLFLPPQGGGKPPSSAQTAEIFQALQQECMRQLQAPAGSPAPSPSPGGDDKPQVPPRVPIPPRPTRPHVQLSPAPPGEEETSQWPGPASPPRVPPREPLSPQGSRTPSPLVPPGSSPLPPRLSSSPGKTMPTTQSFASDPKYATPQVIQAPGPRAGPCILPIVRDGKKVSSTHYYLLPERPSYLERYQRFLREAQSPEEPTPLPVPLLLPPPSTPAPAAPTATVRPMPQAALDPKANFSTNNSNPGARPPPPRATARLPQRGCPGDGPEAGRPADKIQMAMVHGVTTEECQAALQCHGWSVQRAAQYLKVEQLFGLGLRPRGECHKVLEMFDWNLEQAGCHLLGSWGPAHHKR
Excerpt: as §1

VPS34 = VPS34 (Homo sapiens, UniProt Q8NEB9); assay: scanMAX KINOMEscan (Eurofins); assay type: binding; conditions: compound concentration 100 nM; Entrez PIK3C3; read-out: Percent Control
Excerpt: as §1

VRK2 = VRK2 (Homo sapiens, UniProt Q86Y07); assay: scanMAX KINOMEscan (Eurofins); assay type: binding; conditions: compound concentration 100 nM; Entrez VRK2; read-out: Percent Control
Excerpt: as §1

ZAK = ZAK (Homo sapiens, UniProt Q9NYL2); assay: scanMAX KINOMEscan (Eurofins); assay type: binding; conditions: compound concentration 100 nM; Entrez ZAK; read-out: Percent Control
Excerpt: as §1

[3] = molecular target: EGFR(L747-S752del, P753S) (Homo sapiens, UniProt P00533, DEL747-752/P753S); assay: biochemical; assay type: binding; conditions: read-out: Percent Control
PIK3CA(H1047L) = PIK3CA(H1047L) (Homo sapiens, UniProt P42336, H1047L); assay: biochemical; assay type: binding; conditions: compound concentration 100 nM; Entrez PIK3CA; read-out: Percent Control

CN1C(=O)[C@@H](N2CCc3c(nn(Cc4ccccc4)c3C(N)=O)C2=O)COc2cc(Cl)ccc21 [Compound 10, (S)-2-benzyl-6-(8-chloro-5-methyl-4-oxo-2,3,4,5-tetrahydrobenzo[b][1,4]oxazepin-3-yl)-7-oxo-4,5,6,7-tetrahydro-2H-pyrazolo[3,4-c]pyridine-3-carboxamide]
AUC ([1]; 0.1 mg/kg, Mouse PK IV, 0.10 mg/kg, read-out: AUCiv): 0.0947 µg·h/mL
concentration at 5 min ([1]; 0.1 mg/kg, Mouse PK IV, 0.10 mg/kg, read-out: C5min): 0.0445 µg/mL
Cmax ([1]; Mouse PK PO, 1.0 mg/kg): 0.0118 µg/mL
Tmax ([1]; Mouse PK PO, 1.0 mg/kg): 30 min
AUC ([1]; Mouse PK PO, 1.0 mg/kg, read-out: AUCpo): 0.0309 µg·h/mL
bioavailability ([1]; mouse, PO 1.0 mg/kg vs IV 0.10 mg/kg): 4%
remaining binding at 1 µM (ACVR2A; 1000 nM): 100%
remaining binding at 0.1 µM (ACVR2A; compound concentration 100 nM, Entrez ACVR2A): 100%
remaining binding at 1 µM (ASK2): 90%
remaining binding at 1 µM (BMPR2; 1000 nM): 100%
remaining binding at 0.1 µM (BMPR2; compound concentration 100 nM, Entrez BMPR2): 90%
remaining binding at 1 µM (BMX; 1000 nM): 100%
remaining binding at 0.1 µM (BMX; compound concentration 100 nM, Entrez BMX): 100%
remaining binding at 1 µM (BRSK2; 1000 nM): 100%
remaining binding at 0.1 µM (BRSK2; compound concentration 100 nM, Entrez BRSK2): 85%
remaining binding at 1 µM (CAMK2G): 84%
remaining binding at 1 µM (CDK2): 92%
remaining binding at 1 µM (CDK8): 92%
remaining binding at 1 µM (CSNK1G2; 1000 nM): 100%
remaining binding at 0.1 µM (CSNK1G2; compound concentration 100 nM, Entrez CSNK1G2): 91%
remaining binding at 1 µM (DAPK3): 87%
remaining binding at 1 µM (DYRK1B; 1000 nM): 100%
remaining binding at 0.1 µM (DYRK1B; compound concentration 100 nM, Entrez DYRK1B): 100%
remaining binding at 1 µM (FGFR4): 84%
remaining binding at 1 µM (INSR): 98%
remaining binding at 1 µM (JNK3): 95%
remaining binding at 1 µM (LATS1): 82%
remaining binding at 0.1 µM (MARK1): 76%
remaining binding at 1 µM (MLCK): 93%
remaining binding at 1 µM (MYO3B): 96%
remaining binding at 1 µM (NEK9): 92%
remaining binding at 1 µM (PHKG2): 78%
remaining binding at 1 µM (PIK4CB): 75%
remaining binding at 0.1 µM (RAF1): 100%
remaining binding at 0.1 µM [2]: 81%
remaining binding at 1 µM (SRPK1): 88%
remaining binding at 0.1 µM (STK16): 80%
remaining binding at 1 µM (TNK2; 1000 nM): 98%
remaining binding at 0.1 µM (TNK2; compound concentration 100 nM, Entrez TNK2): 89%
remaining binding at 0.1 µM (VPS34): 100%
remaining binding at 0.1 µM (VRK2): 77%
remaining binding at 0.1 µM (ZAK): 89%
remaining activity at 1 µM [3]: 100%
remaining activity at 0.1 µM (PIK3CA(H1047L)): 75%
